The values below are quoted from earlier work in US20080175827A1, “PHOSPHOLIPASE C ZETA MEDIATED OOCYTE ACTIVATION, COMPOSITIONS FOR USE THEREIN, AND ASSAYS FOR DETECTING AND IDENTIFYING AGENTS FOR TREATING MALE INFERTILITY” (Michigan State University, priority 2006, published 2008).

For one data set, the system named is IP3R. The settings on record: mice; Jellerette et al. 2000.
The next data set concerns bovine eggs. The settings on record: bovine oocytes; Malcuit and Fissore 2007.

For `[Cl-].[Cl-].[Sr+2]` [strontium chloride], the IP3R downregulation entry in the data set on IP3R is “does not downregulate IP3R”. Besides, in the data set on bovine eggs, the “[Ca2+]i oscillations” value is “does not induces [Ca^2+]i oscillations”.
